Earlier results on 1 compound are cited in patent US10760135B2, “Methods for predicting pancreatic cancer treatment response” (priority 2016, dated 2020).

Where a name gives a salt, the structure may show the parent alone.

This series has as its system advanced PDAC. Conditions: first-line treatment, patients with advanced PDAC.

As for `Nc1ccn([C@@H]2O[C@H](CO)[C@@H](O)C2(F)F)c(=O)n1` [Gemcitabine, 1-(2′-Deoxy-2′,2′-difluoro-[beta]-D-ribofuranosyl)-4-aminopyrimidin-2-one hydrochloride], the 5-year survival rate was 2%.
